Experimental data: patent publication US20100158897A1, “PAI-1 MODULATORS FOR THE TREATMENT OF OCULAR DISORDERS” (ALCON RESEARCH, LTD., priority 2006, published 2010)

Legend:
PAI-1 [1] = assay: PAI-1 ELISA: TGFβ2 effect on PAI-1 levels in GTM-3 cell supernatants; type: cell-based, human; settings: GTM-3 cells
Protocol: PAI-1 mediated effects may contribute to the previously observed TGFβ2-mediated accumulation of extracellular matrix materials in various tissues, including TM tissues. […] TGFβ2-treatment results in both concentration-dependent and time-dependent accumulation of PAI-1 in TM cell supernatants (FIGS. 1 and 2). PAI-1 levels increase gradually in response to TGFβ2, reaching a constant level at approximately 24 h post-treatment.
(§1) Human TM cell culture: Human TM cells were isolated from post-mortem human donor tissue, characterized, and cultured as previously described. Generation and characterization of the transformed (GTM-3) cell line was also as previously described (Pang et al., Preliminary characterization of a transformed cell strain derived from human trabecular meshwork., Curr. Eye Res., Vol. 13:51-63, 1994.)
(§2) PAI-1 ELISA: 24-well plates of TM cell cultures were serum-deprived for 24 h followed by an additional 24 h (or as indicated) incubation with TGFβ2 in a serum-free medium. Aliquots of supernatants from the treated cultures were quantified for secreted PAI-1 content by means of human PAI-1 ELISA kit (American Diagnostica).

[2] = system: human TM cells (GTM-3, GTM730); assay: TM cell adhesion to vitronectin substrate (InnoCyte ECM Cell Adhesion Assay); type: cell-based; settings: TGFβ2 5 ng/mL, 2 hr, GTM-3 and GTM730 cells
Protocol: as §1
TM cell adhesion: TM cell adhesion was determined by means of InnoCyte ECM Cell Adhesion Assay (Calbiochem). TM cells (20,000/well; serum-free medium) were plated onto a vitronectin-coated 96-well plate. Test agents were then added, followed by incubation in a cell culture incubator for the times indicated. Non-adherent cells were then removed by decantation and gentle wash of the wells with PBS. Relative cell attachment was determined by means of fluorescent dye (calcein-AM) uptake.

PAI-1 [3] = assay: PAI-1 ELISA: effect on TGFβ2-induced total PAI-1 protein in HTM cell supernatants; type: cell-based, human; settings: TGFβ2 5 ng/mL, 24 h
Protocol: FIGS. 9-11 present graphs showing the effect of cilostazol, 3,4-dehydro cilostazol, and cilostamide on TGFβ2-induced (5 ng/mL; 24 h) total PAI-1 protein in supernatants from human trabecular meshwork (HTM) cell lines. Cilostazol was tested against three different HTM cell lines (GTM, NTM470-05, and GTM191-04).
as §1, §2

[4] = system: intraocular pressure (IOP); assay: Ad.TGFβ2-induced ocular hypertension in mice, topical ocular administration; type: in vivo; settings: conscious mice, rebound tonometer
Protocol: FIGS. 12a-12b are graphs showing the effect of topical ocular administration of various concentrations of cilostazol compared to control on Ad.TGFβ2-induced ocular hypertension in mice. Ad.TGFβ2 viral vector was injected on Day 0. Dosing with Cilostazol or vehicle was performed on the indicated days (denoted by horizontal bars). Intraocular pressure (IOP) was monitored in conscious mice using a rebound tonometer.

retinal ganglion cells = settings: post-axotomy; cited from earlier work
[5] = system: optic nerve head and retina; settings: in vivo; cited from earlier work
PAI-1 [6] = settings: non-ocular tissues of rats; cited from earlier work
[7] = cited from earlier work

With “TGFβ2: cytokine transforming growth factor β2” the “time to constant PAI-1 level post-treatment” value (PAI-1 [1]; TGFβ2 5 ng/mL) was “approximately 24 h”, the “PAI-1 content in trabecular meshwork cell cultures” value (PAI-1 [1]; concentration- and time-dependent) was “increases the PAI-1 content” and the “effect on TM cell adhesion compared to controls” value [2] was “did not experience measurable loss of adhesion”.
In the case of `CN(C(=O)CCCOc1ccc2[nH]c(=O)ccc2c1)C1CCCCC1` [cilostamide, Cilostamide], the “effect on TGFβ2-induced total PAI-1 protein in supernatants” value (shortened to “effect … in supernatants”) (PAI-1 [3]; GTM-3 HTM cells, FIGS. 10-11) is reported as “dose-dependent inhibitory effect”.
In the case of `O=C1CCc2cc(OCCCCc3nnnn3C3CCCCC3)ccc2N1` [cilostazol, Cilostazol], the “IOP-lowering effect relative to control (Maxidex vehicle)” value ([4]; 0.3% cilostazol formulation) is listed as “substantial IOP-lowering effects”, the “IOP-lowering effect relative to control (Maxidex vehicle)” value ([4]; 1.0% cilostazol formulation) is listed as “substantial IOP-lowering effects” and the “survival of retinal ganglion cells” value (retinal ganglion cells) is listed as “increase the survival of retinal ganglion cells”. For the same molecule, the “blood flow to the optic nerve head and retina” value [5] was “enhance blood flow”, the “effect … in supernatants” value (PAI-1 [3]; three HTM cell lines (GTM, NTM470-05, GTM191-04), FIGS. 9a-9c) was “dose-dependent inhibitory effect” and the “TGFβ2 and PAI-1 protein expression and PAI-1 activity” value (PAI-1 [6]) was “suppresses”.
For `O=c1ccc2cc(OCCCCc3nnnn3C3CCCCC3)ccc2[nH]1` [3,4-dehydro cilostazol, 3,4-dehydro-cilostazol], the “share of total activity attributed to cilostazol” value ([7]; may account for) is listed as no less than 50%, the “activity relative to cilostazol” value ([7]; reportedly) is listed as 4-7 fold and the “effect … in supernatants” value (PAI-1 [3]; GTM-3 HTM cells, FIGS. 10-11) is listed as “dose-dependent inhibitory effect”.
